Square brackets hold non-standard residues; d marks the D form. Peptide text beside a SMILES is read from it. pGlu = O=C1CC[C@@H](C(=O)O)N1
Tests used:
myelopoietic system = assay: injection of peptide into mice, effect on hemopoiesis; assay type: in vivo
granulopoiesis = assay: activity as granulopoiesis inhibition factor
From the text: Due to the minute amounts of the natural granulopoiesis factor available, the structure of the natural substance has not been determined. It has never been obtained in crystalline or completely pure form and it is not known whether this could be achieved using material from natural sources only. In contrast, the peptides of the invention can be obtained in crystalline form suitable for pharmaceutical use and in relatively large quantities, free from contaminating peptides and proteins of natural origin.

[1] = injected into mice at a relatively low dose level
[2] = mice, injections at 10^-5 M for six successive days

Row | SMILES | production of myelopoietic cells after treatment (myelopoietic system; after treatment with the peptide, inhibitory effect reversible, normal cell population overshoots temporarily) | effect on other cell lineages deriving from the pluripotent stem cells (myelopoietic system; [1]) | effect on the myelopoietic system (morphologically recognisable cells and committed stem cells) (myelopoietic system; [1]) | effect on the whole hemopoietic system, including production of lymphocytes (myelopoietic system; mice, 10^-5 M for three weeks) | peripheral granulocytes (myelopoietic system; mice, concentration of 10^-7 M in the extracellular fluid, greatest in the mature cells) | pluripotent stem cells and production of erythrocytes (myelopoietic system; [2]) | population of committed stem cells (myelopoietic system; [2]) | granulopoiesis inhibition activity (granulopoiesis)
1 | NCCCC[C@H](NC(=O)[C@H](CS)NC(=O)[C@H](CC(=O)O)NC(=O)[C@H](CCC(=O)O)NC(=O)[C@@H]1CCC(=O)N1)C(=O)O [Compound (1), L-pyroGlutamyl-L-glutamyl-L-aspartyl-L-cysteinyl-L-lysine] ([pGlu]EDCK-OH) | temporarily abnormally increased | not affected | selective inhibition of the myelopoietic system | strong stimulation | marked decrease | reduced | strong reduction | 
2 | NCCCC[C@H](NC(=O)[C@H](CS)NC(=O)[C@H](CC(=O)O)NC(=O)[C@H](CC(=O)O)NC(=O)[C@@H]1CCC(=O)N1)C(=O)O [pyroGlu-Asp-Asp-Cys-LysOH] ([pGlu]DDCK-OH) |  |  |  |  |  |  |  | inactive

Reference: US4499081A, “Peptide compounds” (Nyegaard & Co A/S, priority 1982, dated 1985)
